These results are taken from the NIST ThermoML archive (doi:10.1016/j.jct.2014.06.011).

± gives the expanded uncertainty stated by the source.

Data set [1] in a line: Molar enthalpy of transition or fusion. The settings on record: Crystal; DSC.
For data set [2] the following is noted: Crystal; DTA.

Take `CCCCCCCCCCO` [decan-1-ol]: the “Molar enthalpy of transition or fusion” value in data set [1] amounted to 6.88 ± 0.741 kcal/mol. In data set [2], the Normal melting temperature stood at 7.2 ± 0.7 °C.

Take `CCCCCCCCCC(=O)O` [decanoic acid]: the “Molar enthalpy of transition or fusion” value in data set [1] was found to be 6.69 ± 0.741 kcal/mol. In data set [2], the Normal melting temperature worked out at 32.2 ± 0.7 °C.

Take `CCCCCCCCO` [octan-1-ol]: the “Molar enthalpy of transition or fusion” value in data set [1] was 5.66 ± 0.717 kcal/mol. In data set [2], the Normal melting temperature was -14.4 ± 0.7 °C.

Consider `CCCCCCCC(=O)O` [octanoic acid], for which the “Molar enthalpy of transition or fusion” value in data set [1] came out at 5.11 ± 0.717 kcal/mol. For the same compound, the Normal melting temperature in data set [2] is 16.6 ± 0.7 °C.
